Assay results taken from the supplement of paper PMC10307832.

How the values were obtained:
Assay in all cases: relative viability (nuclei count vs DMSO), 5 days (fraction); higher = more cells survive
AZD8055 + Palbociclib = compound: COc1ccc(-c2ccc3c(N4CCOC[C@@H]4C)nc(N4CCOC[C@@H]4C)nc3n2)cc1CO [AZD8055] + CC(=O)c1c(C)c2cnc(Nc3ccc(N4CCNCC4)cn3)nc2n(C2CCCC2)c1=O [Palbociclib] (partner 0.5 µM)
Procedure, shortened: (§1)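 Lung cancer cell lines were seeded in 1536-well plates and dosed by pin tool the next day, with either a single drug or a fixed anchor-drug dose combined with five library-drug doses (not always all listed) spaced in √10 steps. Five days later, one step fixed the cells and stained their nuclei (final 0.05% Triton X-100, 1% formaldehyde, 1 ug/ml Hoechst), and nuclei were counted on 4× images. Relative viability is the nuclei count in treated wells divided by the count in vehicle wells, and each value is the median of duplicate plates.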

AZD8055 + Bortezomib = compound: COc1ccc(-c2ccc3c(N4CCOC[C@@H]4C)nc(N4CCOC[C@@H]4C)nc3n2)cc1CO [AZD8055] + CC(C)C[C@H](NC(=O)[C@H](Cc1ccccc1)NC(=O)c1cnccn1)B(O)O [Bortezomib] (partner 0.002 µM)
Procedure, shortened: as §1

AZD8055 + Foretinib = compound: COc1ccc(-c2ccc3c(N4CCOC[C@@H]4C)nc(N4CCOC[C@@H]4C)nc3n2)cc1CO [AZD8055] + COc1cc2c(Oc3ccc(NC(=O)C4(C(=O)Nc5ccc(F)cc5)CC4)cc3F)ccnc2cc1OCCCN1CCOCC1 [Foretinib] (partner 0.25 µM)
Procedure, shortened: as §1

AZD8055 + Pictilisib = compound: COc1ccc(-c2ccc3c(N4CCOC[C@@H]4C)nc(N4CCOC[C@@H]4C)nc3n2)cc1CO [AZD8055] + CS(=O)(=O)N1CCN(Cc2cc3nc(-c4cccc5[nH]ncc45)nc(N4CCOCC4)c3s2)CC1 [Pictilisib] (partner 1 µM)
Procedure, shortened: as §1

Cell Line: NCI-H3122
- relative viability (AZD8055 + Palbociclib; first compound 0.01 µM): 0.194
- relative viability (AZD8055 + Palbociclib; first compound 0.03162 µM): 0.197
- relative viability (AZD8055 + Palbociclib; first compound 0.1 µM): 0.155
- relative viability (AZD8055 + Palbociclib; first compound 0.3162 µM): 0.147
- relative viability (AZD8055 + Palbociclib; first compound 1 µM): 0.117
- relative viability (AZD8055 + Bortezomib; first compound 0.01 µM): 1.14
- relative viability (AZD8055 + Bortezomib; first compound 0.03162 µM): 0.998
- relative viability (AZD8055 + Bortezomib; first compound 0.1 µM): 1.09
- relative viability (AZD8055 + Bortezomib; first compound 0.3162 µM): 0.728
- relative viability (AZD8055 + Bortezomib; first compound 1 µM): 0.657
- relative viability (AZD8055 + Foretinib; first compound 0.01 µM): 0.97
- relative viability (AZD8055 + Foretinib; first compound 0.03162 µM): 1.02
- relative viability (AZD8055 + Foretinib; first compound 0.1 µM): 1.05
- relative viability (AZD8055 + Foretinib; first compound 0.3162 µM): 0.396
- relative viability (AZD8055 + Foretinib; first compound 1 µM): 0.401
- relative viability (AZD8055 + Pictilisib; first compound 0.01 µM): 0.549
- relative viability (AZD8055 + Pictilisib; first compound 0.03162 µM): 0.47
- relative viability (AZD8055 + Pictilisib; first compound 0.1 µM): 0.337
- relative viability (AZD8055 + Pictilisib; first compound 0.3162 µM): 0.272
- relative viability (AZD8055 + Pictilisib; first compound 1 µM): 0.29

Cell Line: PC-3 [JPC-3]
- relative viability (AZD8055 + Palbociclib; first compound 0.01 µM): 0.515
- relative viability (AZD8055 + Palbociclib; first compound 0.03162 µM): 0.557
- relative viability (AZD8055 + Palbociclib; first compound 0.1 µM): 0.516
- relative viability (AZD8055 + Palbociclib; first compound 0.3162 µM): 0.435
- relative viability (AZD8055 + Palbociclib; first compound 1 µM): 0.458
- relative viability (AZD8055 + Bortezomib; first compound 0.01 µM): 0.911
- relative viability (AZD8055 + Bortezomib; first compound 0.03162 µM): 0.872
- relative viability (AZD8055 + Bortezomib; first compound 0.1 µM): 0.83
- relative viability (AZD8055 + Bortezomib; first compound 0.3162 µM): 0.687
- relative viability (AZD8055 + Bortezomib; first compound 1 µM): 0.555
- relative viability (AZD8055 + Foretinib; first compound 0.01 µM): 1.12
- relative viability (AZD8055 + Foretinib; first compound 0.03162 µM): 1.12
- relative viability (AZD8055 + Foretinib; first compound 0.1 µM): 1.1
- relative viability (AZD8055 + Foretinib; first compound 0.3162 µM): 0.774
- relative viability (AZD8055 + Foretinib; first compound 1 µM): 0.492
- relative viability (AZD8055 + Pictilisib; first compound 0.01 µM): 0.616
- relative viability (AZD8055 + Pictilisib; first compound 0.03162 µM): 0.81
- relative viability (AZD8055 + Pictilisib; first compound 0.1 µM): 0.645
- relative viability (AZD8055 + Pictilisib; first compound 0.3162 µM): 0.633
- relative viability (AZD8055 + Pictilisib; first compound 1 µM): 0.381

Cell Line: PC-14
- relative viability (AZD8055 + Palbociclib; first compound 0.01 µM): 0.698
- relative viability (AZD8055 + Palbociclib; first compound 0.03162 µM): 0.589
- relative viability (AZD8055 + Palbociclib; first compound 0.1 µM): 0.255
- relative viability (AZD8055 + Palbociclib; first compound 0.3162 µM): 0.108
- relative viability (AZD8055 + Palbociclib; first compound 1 µM): 0.12
- relative viability (AZD8055 + Bortezomib; first compound 0.01 µM): 1.13
- relative viability (AZD8055 + Bortezomib; first compound 0.03162 µM): 1.05
- relative viability (AZD8055 + Bortezomib; first compound 0.1 µM): 0.737
- relative viability (AZD8055 + Bortezomib; first compound 0.3162 µM): 0.272
- relative viability (AZD8055 + Bortezomib; first compound 1 µM): 0.246
- relative viability (AZD8055 + Foretinib; first compound 0.01 µM): 1.18
- relative viability (AZD8055 + Foretinib; first compound 0.03162 µM): 1.04
- relative viability (AZD8055 + Foretinib; first compound 0.1 µM): 1.07
- relative viability (AZD8055 + Foretinib; first compound 0.3162 µM): 0.488
- relative viability (AZD8055 + Foretinib; first compound 1 µM): 0.299
- relative viability (AZD8055 + Pictilisib; first compound 0.01 µM): 0.587
- relative viability (AZD8055 + Pictilisib; first compound 0.03162 µM): 0.452
- relative viability (AZD8055 + Pictilisib; first compound 0.1 µM): 0.294
- relative viability (AZD8055 + Pictilisib; first compound 0.3162 µM): 0.184
- relative viability (AZD8055 + Pictilisib; first compound 1 µM): 0.113

Cell Line: RERF-LC-KJ
- relative viability (AZD8055 + Palbociclib; first compound 0.01 µM): 1.11
- relative viability (AZD8055 + Palbociclib; first compound 0.03162 µM): 1.09
- relative viability (AZD8055 + Palbociclib; first compound 0.1 µM): 0.779
- relative viability (AZD8055 + Palbociclib; first compound 0.3162 µM): 0.441
- relative viability (AZD8055 + Palbociclib; first compound 1 µM): 0.412
- relative viability (AZD8055 + Bortezomib; first compound 0.01 µM): 1.18
- relative viability (AZD8055 + Bortezomib; first compound 0.03162 µM): 0.921
- relative viability (AZD8055 + Bortezomib; first compound 0.1 µM): 0.748
- relative viability (AZD8055 + Bortezomib; first compound 0.3162 µM): 0.528
- relative viability (AZD8055 + Bortezomib; first compound 1 µM): 0.569
- relative viability (AZD8055 + Foretinib; first compound 0.01 µM): 0.963
- relative viability (AZD8055 + Foretinib; first compound 0.03162 µM): 0.754
- relative viability (AZD8055 + Foretinib; first compound 0.1 µM): 0.771
- relative viability (AZD8055 + Foretinib; first compound 0.3162 µM): 0.535
- relative viability (AZD8055 + Foretinib; first compound 1 µM): 0.392
- relative viability (AZD8055 + Pictilisib; first compound 0.01 µM): 0.566
- relative viability (AZD8055 + Pictilisib; first compound 0.03162 µM): 0.452
- relative viability (AZD8055 + Pictilisib; first compound 0.1 µM): 0.426
- relative viability (AZD8055 + Pictilisib; first compound 0.3162 µM): 0.309
- relative viability (AZD8055 + Pictilisib; first compound 1 µM): 0.289

Cell Line: SK-LU-1
- relative viability (AZD8055 + Palbociclib; first compound 0.01 µM): 0.401
- relative viability (AZD8055 + Palbociclib; first compound 0.03162 µM): 0.32
- relative viability (AZD8055 + Palbociclib; first compound 0.1 µM): 0.288
- relative viability (AZD8055 + Palbociclib; first compound 0.3162 µM): 0.299
- relative viability (AZD8055 + Palbociclib; first compound 1 µM): 0.261
- relative viability (AZD8055 + Bortezomib; first compound 0.01 µM): 1.25
- relative viability (AZD8055 + Bortezomib; first compound 0.03162 µM): 1.06
- relative viability (AZD8055 + Bortezomib; first compound 0.1 µM): 0.74
- relative viability (AZD8055 + Bortezomib; first compound 0.3162 µM): 0.481
- relative viability (AZD8055 + Bortezomib; first compound 1 µM): 0.422
- relative viability (AZD8055 + Foretinib; first compound 0.01 µM): 0.784
- relative viability (AZD8055 + Foretinib; first compound 0.03162 µM): 0.627
- relative viability (AZD8055 + Foretinib; first compound 0.1 µM): 0.427
- relative viability (AZD8055 + Foretinib; first compound 0.3162 µM): 0.258
- relative viability (AZD8055 + Foretinib; first compound 1 µM): 0.212
- relative viability (AZD8055 + Pictilisib; first compound 0.01 µM): 0.525
- relative viability (AZD8055 + Pictilisib; first compound 0.03162 µM): 0.395
- relative viability (AZD8055 + Pictilisib; first compound 0.1 µM): 0.327
- relative viability (AZD8055 + Pictilisib; first compound 0.3162 µM): 0.28
- relative viability (AZD8055 + Pictilisib; first compound 1 µM): 0.298

Cell Line: SW 1573
- relative viability (AZD8055 + Palbociclib; first compound 0.01 µM): 0.342
- relative viability (AZD8055 + Palbociclib; first compound 0.03162 µM): 0.324
- relative viability (AZD8055 + Palbociclib; first compound 0.1 µM): 0.159
- relative viability (AZD8055 + Palbociclib; first compound 0.3162 µM): 0.145
- relative viability (AZD8055 + Palbociclib; first compound 1 µM): 0.133
- relative viability (AZD8055 + Bortezomib; first compound 0.01 µM): 1.16
- relative viability (AZD8055 + Bortezomib; first compound 0.03162 µM): 0.826
- relative viability (AZD8055 + Bortezomib; first compound 0.1 µM): 0.711
- relative viability (AZD8055 + Bortezomib; first compound 0.3162 µM): 0.286
- relative viability (AZD8055 + Bortezomib; first compound 1 µM): 0.255
- relative viability (AZD8055 + Foretinib; first compound 0.01 µM): 0.86
- relative viability (AZD8055 + Foretinib; first compound 0.03162 µM): 0.645
- relative viability (AZD8055 + Foretinib; first compound 0.1 µM): 0.803
- relative viability (AZD8055 + Foretinib; first compound 0.3162 µM): 0.516
- relative viability (AZD8055 + Foretinib; first compound 1 µM): 0.251
- relative viability (AZD8055 + Pictilisib; first compound 0.01 µM): 0.504
- relative viability (AZD8055 + Pictilisib; first compound 0.03162 µM): 0.438
- relative viability (AZD8055 + Pictilisib; first compound 0.1 µM): 0.38
- relative viability (AZD8055 + Pictilisib; first compound 0.3162 µM): 0.205
- relative viability (AZD8055 + Pictilisib; first compound 1 µM): 0.181

Cell Line: UMC-11
- relative viability (AZD8055 + Palbociclib; first compound 0.01 µM): 0.341
- relative viability (AZD8055 + Palbociclib; first compound 0.03162 µM): 0.32
- relative viability (AZD8055 + Palbociclib; first compound 0.1 µM): 0.299
- relative viability (AZD8055 + Palbociclib; first compound 0.3162 µM): 0.295
- relative viability (AZD8055 + Palbociclib; first compound 1 µM): 0.288
- relative viability (AZD8055 + Bortezomib; first compound 0.01 µM): 0.824
- relative viability (AZD8055 + Bortezomib; first compound 0.03162 µM): 0.662
- relative viability (AZD8055 + Bortezomib; first compound 0.1 µM): 0.397
- relative viability (AZD8055 + Bortezomib; first compound 0.3162 µM): 0.215
- relative viability (AZD8055 + Bortezomib; first compound 1 µM): 0.195
- relative viability (AZD8055 + Foretinib; first compound 0.01 µM): 1
- relative viability (AZD8055 + Foretinib; first compound 0.03162 µM): 0.8
- relative viability (AZD8055 + Foretinib; first compound 0.1 µM): 0.555
- relative viability (AZD8055 + Foretinib; first compound 0.3162 µM): 0.292
- relative viability (AZD8055 + Foretinib; first compound 1 µM): 0.297
- relative viability (AZD8055 + Pictilisib; first compound 0.01 µM): 0.905
- relative viability (AZD8055 + Pictilisib; first compound 0.03162 µM): 0.604
- relative viability (AZD8055 + Pictilisib; first compound 0.1 µM): 0.503
- relative viability (AZD8055 + Pictilisib; first compound 0.3162 µM): 0.272
- relative viability (AZD8055 + Pictilisib; first compound 1 µM): 0.254
